# Laboratory results reported in ChEMBL document CHEMBL1123371, “5-HT1 and 5-HT2 binding characteristics of some quipazine analogues” (J Med Chem, 1986).
# How the values were obtained:
# Rattus norvegicus = assay: Stimulus generalization studies in TFMPP trained animals and the number of animals responding /number to receive dose of drug was determined at dose of 1.0 mg/kg; 10/10; type: functional
# [1] = Displacement of [3H]5-HT from 5-hydroxytryptamine 1 receptor of rat cortical membrane homogenates
# [2] = target: Serotonin 2 (5-HT2) receptor (Rattus norvegicus, UniProt P30994+P08909+P14842); assay: Displacement of [3H]ketanserin from 5-hydroxytryptamine 2 receptor of rat cortical membrane homogenates
Structure (SMILES),Activity (Rattus norvegicus),Ki [1],Ki [2]
COc1cc(CC(C)N)c(OC)cc1C (stereo not drawn) [DOM],10,,
NC1CCc2ccccc2C1 (stereo not drawn),,380 nM,11100 nM
COc1cccc2ccc(N)nc12,,10400 nM,35000 nM
COc1cccc2ccc(N3CCN(C)CC3)nc12,,1900 nM,1200 nM
CCCN(CCC)c1ccc2cccc(OC)c2n1,,45000 nM,50000 nM
c1ccc2nc(N3CCNCC3)ccc2c1 [QUIPAZINE],,230 nM,230 nM
COc1cccc2ccc(N3CCNCC3)nc12,,415 nM,310 nM
